One test relates to rat bladder contractions. Nature of the test: Isovolumetric rhythmic bladder contractions in the anesthetized rat: amplitude and rate of the contractions. Conditions: for amplitude of the bladder contractions / rate of the bladder contractions: anesthetized rat, iv, 6.83, 13.7 and 27.3 mg/kg given as citrate, FIG. 2. Type of test: in vivo. As to the method:
(1) Isovolumetric Rhythmic Bladder Contractions in the Anesthetized Rat
(a) Amplitude and Rate of the Contractions
Rat urinary bladder catheterized:
A pressure transducer is used to measure intravesical pressure (recording rate and amplitude of bladder contractions).
An infusion pump is used to fill bladder by 0.1 ml increments of saline until rhythmic contractions. After 15 minutes of constant interval bladder contractions, (R)-(+)-2-((1-methyl-1H-pyrazol-5-yl)(phenyl)methoxy-N-methylethanamine citrate in 6.83, 13.7, and 27.3 mg/kg dosages; (S)-(−)-2-((1-methyl-1H-pyrazol-5-yl)(phenyl)methoxy-N-methylethanamine citrate in 6.83, 13.7 and 27.3 mg/kg dosages; and oxybutinyn in a 1 mg/kg dose were administered by iv. Measurements were made before and then during 15 minute intervals after each administration.
Aditionally the compound 1, accoridng example 1, and its enantiomers were active in rat urinary incontinence test. They inhibited the amplitude of the rat bladder contractions. The compounds were evaluated in a model of cystometry in the anesthesized rat, looking for the effects on isovolumetric rhythmic bladder contractions. The method, which evaluatesthe effects of the test substances on lower urinary tract function, followed that described by Y. Kimura et al. ( Int. J. Urol. 1996, 3: 218-227).

For a further test, the system named is reserpine-induced ptosis. Description: Inhibition of reserpine-induced ptosis in mice. Conditions: for ED50: Mus musculus, read-out: Inhibition test Reserpin ptosis In mice ED50. The format is in vivo. As for the experimental part: It has been used the test described by S.Garattini et al. (Med.Exp. 1960, 3: 315-320). The antidepressant drugs inhibit the parpebral ptosis induced by reserpine ([…], i.p.) in mice.

The subject of test [1] is aversive situation-induced immobility. Description: Inhibition of immobility induced by an aversive situation (tail suspension) in mice. The format is in vivo. As to conditions: Mus musculus, ip, read-out: Immobility test Tail hanging In mice ED50. As for the experimental part:
The test was described by R. D. Porsolt et al. (Arch.int.Pharmacodyn. 1987, 288: 11-30). Following suchg method, the compound to be studied was administered by ip route, and 30 minutes later mice were submitted to an aversive situation: they were tail suspended in the […] for 6 minutes. Mobility time and movements power were authomatically measured and registered in the above mentioned device. The potential antidepressant reduce the mice immobility time.

For test [2], the system named is immobility in forced swimming. Description: Water despair test (forced swimming) in rats. The format is in vivo. Conditions: for ED50: read-out: Swimming Test Forced swimming In rats ED50; for Swimming Test Forced swimming In rats, activity at single dose: 40 mg/Kg. As to the method: The test was described by R. D. Porsolt et al. (Europ.J.Pharmacol. 1978, 47:379-391). […] The following day, 24 hours later, were let to swim in the water, but only for 5 minutes, and it was […] immobility time. The compounds to be studied were administered by ip route, 60 minutes before the test. The antidepressants reduce the immobility time. […] (Tablel).

A further test relates to rat urinary bladder. Nature of the test: Urodynamic parameters (cystometry) in the anesthetized rat. Type of test: in vivo. As to conditions: for mean volume of micturition / number of micturitions / volume for the first micturition: anesthetized rat, iv, duloxetine 1 mg/kg, cizolirtine 10 mg/kg, N-desmethyl metabolite 10 mg/kg, vs control vehicle, FIG. 3. As to the method:
Rat urinary bladder was catheterized. A pressure transducer was used to measure intavesical pressure in anesthetized rats treated with 1 mg/kg duloxetine, 10 mg/kg cizolirtine, 10 mg/kg N-desmethyl metabolite or a control vehicle. Recordings were made of the infusion volume, pressure needed for micturition, number of micturitions during the infusion.
An infusion pump was used to fill bladder with saline until micturition. After stabilization, treatment compounds or control vehicle were administered by iv. Fifteen minutes after administration, saline infusion was started and urodynamic parameters were again analyzed. The number of micturitions, volume for first micturition, mean volume for micturition, and AUC of intravesical pressure were measured for each of the treatment groups and compared to the control.
(§1) This is performed on Sprague-Dawley male and female anaesthetized rats. Left carotid artery is inserted with a catheter for the continuous measure of systemic arterial pressure and cardiac frequency. After an incision to the abdomen, a catheter is inserted on the bladder and connected to a pressure transducer and to an infusion pump. The urethra is ligated and the bladder is voided. After stabilization period, saline solution is infused (0.9 % NaC1solution at 5 ml/h rate) and the basal parameters of intravesical pressure are measured for 20 min. Cystometry parameters are the infusion volume and pressure needed to activate the micturition reflex, and the micturition frequency. After stabilization period, the compounds are administered i.v. and, 15 min. later, saline is infused and urodynamic parameters are measured again to compare with basal.

The subject of test [3] is acetic acid-induced bladder hyperactivity. Nature of the test: Protection against acetic acid-induced bladder hyperactivity in the anesthetized rat. As to conditions: for protection of the rat bladder against the acetic acid-induced hyperactivity: cizolirtine 5, 10 mg/kg i.v.; for protection of the rat bladder against the acetic acid-induced hyperactivity / number of micturitions / volume for the first micturition: duloxetine 1 mg/kg; for number of micturitions / volume for the first micturition: cizolirtine 5 and 10 mg/kg, vs control, FIG. 4. The format is in vivo. As for the experimental part: (a) Protection Against Acetic Acid-induced Hyperactivity: Urodynamic Parameters
Anesthetized rat bladders were treated with […], […] and 1 mg/kg duloxetine, […] and 5 mg/kg cizolirtine, […] and 10 mg/kg cizolirtine, or […] and 10 mg/kg N-desmethyl metabolite. The number of micturitions, the volume for first micturition, micturition volume, intravesical pressure increase, and AUC of intravesical pressure were measured for each of the treatment groups and the control.
as §1
Further the effect on acetic acid-induced bladder hiperactivity is tested.

Test [4] concerns urinary incontinence secondary to overactive bladder or idiopathic urge incontinence. Nature of the test: Clinical Study A, placebo controlled, 50 mg twice a day. Type of test: in vivo, human. Conditions: patients. As to the method:
In a placebo controlled clinical trial 79 patients are randomized. Patients are from both genders with ages between 18 and 80 years (inclusive). They have urinary incontinence secondary to overactive bladder (detrusor hyperreflexia or instability) or idiopathic urge incontinence confirmed by the medical history and urodynamic study.
One group of patients is treated with 2-((1-methyl-1H-pyrazol-5-yl)(phenyl)methoxy-N-methylethanamine, 50 mg, twice a day, formulated as a tablet for oral administration. Another group is treated with placebo in matching tablets, twice a day, with administration by oral route. The patients are treated for 84 days.
Efficacy is measured by the difference from baseline in the mean number of leakages, micturitions, urgencies and voidings/24 hours as provided by a 7-day frequency-volume chart in the end of the study visit.
(§2) The primary efficacy analysis is based on the PP population. The treatment groups are compared with respect to the treatment effect, defined as the difference between treatment groups for changes from baseline in the number of voidings per 24 hours.
Additionally, the percentage of responders is compared based on an analysis of the number of patients having <8 voidings/day or experiencing complete dryness or both, and statistical significance determined.

The test system is the same in test [5]. Description: Clinical Study B, placebo controlled, 100 mg twice daily. Type of test: in vivo, human. As to conditions: patients, 100 mg by oral route twice daily, 84 days. As for the experimental part: In a placebo controlled clinical trial 135 patients are randomized. Patients are from both genders with ages between 18 and 80 years (inclusive). They have urinary incontinence secondary to overactive bladder (detrusor hyperreflexia or instability) or idiopathic urge incontinence confirmed by the medical history and urodynamic study.
One group of patients is treated with 2-((1-methyl-1H-pyrazol-5-yl)(phenyl)methoxy-N-methylethanamine 100 mg formulated as an oral administration (twice daily). Another group is treated with placebo matching capsules, […], with administration by oral route. The patients are treated for 84 days.
Efficacy is measured by the difference from baseline in the mean number of voidings/24 hours as provided by a 7-day frequency-volume chart in the end of study visit.
as §2
Additionally, the percentage of responders is compared based on analysis of the number of patients having <8 voidings per day or experienced complete dryness or both., and statistical significance determined.

A further test addresses T1, serotonin transporter (Rattus norvegicus, UniProt P31652).
T1 construct: from tissue; host or cells: rat brain cortex
Nature of the test: Serotonin transporter affinity, (3H)paroxetine binding in rat brain cortex. Conditions: (3H)paroxetine radioligand, serotonin 100 μM non specific. As to the method:
This affinity was studied in rat brain cortex, using (3H)paroxetine ([…]) as radioligand and 5-Hydroxytriptamine (serotonin)(100 μM) as non specific ligand.

The mark [6] stands for this setting: mice, i.p., 30 minutes before tail suspension for 6 minutes.
Where [7] appears, read: anaesthetized Sprague-Dawley rats, 10 mg/kg i.v., vs basal.
The mark [8] stands for this setting: N-desmethyl metabolite 10 mg/kg.
Setting [9] is: acetic acid 0.3% v/v infusion, 10 mg/kg i.v.
Where [10] appears, read: acetic acid 0.3% v/v infusion, 10 mg/kg i.v. acute.
Setting [11] is: acetic acid-treated rat bladder, N-desmethyl metabolite 10 mg/kg.
Setting [12] is: 50 mg twice a day oral, 84 days, compared with placebo.

Where two headings read alike, the source gives them in different places.

As usually defined, the ED50 is the midpoint of the dose-response relation. The term Ki denotes a measure of affinity in units of concentration, obtained from inhibition or displacement. Low values mean a stronger hold on the target, high ones a looser hold on the target. Broadly, the inhibition is the share of the control response that was lost under treatment.

T1 sequence (P31652 whole entry): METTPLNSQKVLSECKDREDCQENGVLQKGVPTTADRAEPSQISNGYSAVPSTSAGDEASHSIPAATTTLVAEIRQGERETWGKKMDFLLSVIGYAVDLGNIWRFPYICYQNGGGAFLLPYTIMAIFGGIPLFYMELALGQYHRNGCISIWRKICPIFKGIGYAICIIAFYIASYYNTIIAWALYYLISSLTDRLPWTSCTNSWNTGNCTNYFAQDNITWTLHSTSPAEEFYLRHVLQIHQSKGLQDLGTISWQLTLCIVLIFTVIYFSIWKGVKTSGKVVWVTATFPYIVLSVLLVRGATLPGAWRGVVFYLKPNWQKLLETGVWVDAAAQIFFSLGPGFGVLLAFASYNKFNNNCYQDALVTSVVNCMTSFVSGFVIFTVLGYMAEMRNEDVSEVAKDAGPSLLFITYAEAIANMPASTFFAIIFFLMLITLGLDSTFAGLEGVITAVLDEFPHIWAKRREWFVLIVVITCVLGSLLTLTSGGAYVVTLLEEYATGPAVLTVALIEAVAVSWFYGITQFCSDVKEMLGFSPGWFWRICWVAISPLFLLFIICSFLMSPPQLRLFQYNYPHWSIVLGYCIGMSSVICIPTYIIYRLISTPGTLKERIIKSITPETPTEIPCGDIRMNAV

As to `CNCCO[C@H](c1ccccc1)c1ccnn1C` [(R)-2-((1-methyl-1H-pyrazol-5-yl)(phenyl)methoxy)-N-methylethanamine], in the test on rat bladder contractions, the “amplitude of the bladder contractions” value is reported as “inhibited” and the “rate of the bladder contractions” value is listed as “without modifying the rate”.
As to `CN[C@H]1CC[C@@H](c2ccc(Cl)c(Cl)c2)c2ccccc21` [Sertraline], the ED50 in the test on reserpine-induced ptosis (mice, p.o., reserpine i.p.) is 17 mg/kg; in [1] (setting [6]) it was 8 mg/kg; in test [2] (Rattus norvegicus, ip, rats, i.p., 60 minutes before the test), 28 mg/kg.
On to `CNCCO[C@@H](c1ccccc1)c1ccnn1C` [2-((S)-(1-methyl-1H-pyrazol-5-yl)(phenyl)methoxy)-N-methylethanamine], for which, in the test with rat bladder contractions, the “amplitude of the bladder contractions” value is listed as “inhibited” and the “rate of the bladder contractions” value is “without modifying the rate”.
For `CN(C)CCOC(c1ccccc1)c1ccnn1C` (centres unmarked) [Cizolirtine], in the test with rat urinary bladder (setting [7]), the bladder contractility entry is reported as “no alteration”, the bladder pressure result is reported as “significantly reduced”, the mean micturition volume result is listed as “significantly increased” and the micturition frequency result is “trends to decrease”. Besides, the “volume required for first micturition” value in the test on rat urinary bladder (setting [7]) is on record as “augment”. Moreover, in the test on rat urinary bladder, the “mean volume of micturition” value is given as “increased”, the number of micturitions result is “decreased” and the “volume for the first micturition” value is “increased”. Moreover, in test [3] (setting [8]), the “protection of the rat bladder against the acetic acid-induced hyperactivity” value (from here on “protection of the rat bladder”) is reported as “protected”. Besides, in test [3] (setting [9]), the “acetic acid-caused increase of bladder pressure” value is on record as “reversed” and the “contractile capacity of the bladder” value is given as “Neither acetic acid nor cizolirtine significantly affected”. In test [3] (setting [10]), the “acetic acid-caused increase of micturition frequency” value is on record as “significantly reduced” and the “acetic acid-caused reduction of micturition volume” value is given as “significantly reduced”. Besides, in test [3] (setting [11]), the number of micturitions result is “reduced” and the “volume for the first micturition” value is on record as “increased”. In the test on reserpine-induced ptosis (mice, p.o., reserpine i.p.), the ED50 is 26 mg/kg. Further, in [1] (setting [6]), the ED50 was 17 mg/kg. In addition, the “Swimming Test Forced swimming In rats, activity at single dose” value in test [2] (rats, i.p.) was “inactive”.
As to `CNCCOC(c1ccccc1)c1ccnn1C` (centres unmarked) [Compound 1, 2-((1-methyl-1H-pyrazol-5-yl)(phenyl)methoxy)-N-methylethanamine], the “amplitude of the rat bladder contractions, rat urinary incontinence test” value in the test with rat bladder contractions (cystometry in the anesthesized rat, method of Kimura et al.) is listed as “inhibited”. In addition, in the test on rat urinary bladder, the “mean volume of micturition” value was “increased”, the number of micturitions entry is “decreased” and the “volume for the first micturition” value is on record as “increased”. The “protection of the rat bladder” value in test [3] (setting [8]) is listed as “protected”. Also, in test [3] (acetic acid-treated rat bladder, N-desmethyl metabolite 10 mg/kg, FIG. 5), the “number of micturitions (sentence on FIG. 5)” value is “increased”. Moreover, in [3] (setting [11]), the number of micturitions entry was “reduced” and the “volume for the first micturition” value is given as “increased”. In addition, in test [4] (50 mg twice a day by oral route, compared to placebo), the “urge incontinence caused by overactive bladder, majority of efficacy variables” value is “clinically significant improvements”. In addition, in test [4] (setting [12]), the “mean number of daily leakages” value was “significant reduction”, the “mean number of daily micturitions” value is “significant reduction”, the “mean number of daily urgencies” value was “significant reduction” and the “mean number of daily voidings” value was “significant reduction”. Further, the bladder overactivity result in [5] is “improve bladder overactivity”. This compound gave a Ki at serotonin transporter of 116 nM. Also, the ED50 with reserpine-induced ptosis is 14 mg/kg. Further, the ED50 in test [1] is 17 mg/kg. Also, the ED50 in test [2] (Rattus norvegicus, ip) was found to be 33 mg/kg.
Turning to `CNCC[C@H](Oc1cccc2ccccc12)c1cccs1` [duloxetine], in the test with rat urinary bladder, the “mean volume of micturition” value is given as “increased”, the number of micturitions result was “decreased” and the “volume for the first micturition” value was “increased”. Besides, the “protection of the rat bladder” value in test [3] (setting [8]) was “protected”. Moreover, in test [3] (setting [11]), the number of micturitions result is “reduced” and the “volume for the first micturition” value was “increased”.
With `CNCCOC(c1cccs1)c1ccnn1C.O=C(O)C(=O)O` (centres unmarked) [Compound 2, 2-((1-methyl-1H-pyrazol-5-yl)(thiophen-2-yl)methoxy)-N-methylethanamine; oxalate], the “Inhibition test Reserpin ptosis In mice, activity at single dose” value with reserpine-induced ptosis (mice, p.o., 40 mg/Kg) is “inactive”. Moreover, in [1] (setting [6]), the ED50 is 33 mg/kg. For the same compound, the “Swimming Test Forced swimming In rats, activity at single dose” value in test [2] (rats, i.p.) is “inactive”.
Take `CNCCCN1c2ccccc2CCc2ccccc21` [Desipramine]: the inhibition at 30 mg/kg in test [2] (Rattus norvegicus, ip, rats, i.p., 30 mg/Kg, read-out: Swimming Test Forced swimming In rats, I (inhibition) at single dose) came to 32%.
